This is an account of results in ChEMBL document CHEMBL1933060, “Discovery of novel 5-alkynyl-4-anilinopyrimidines as potent, orally active dual inhibitors of EGFR and Her-2 tyrosine kinases” (Bioorg Med Chem Lett, 2012).

Usually IC50 stands for the point on the concentration scale where inhibition reaches its midpoint. In general, solubility refers to the dissolved amount per volume that the medium holds. A low value points to a poorly soluble substance. What is called clearance is the rate of elimination divided by the concentration. A lower clearance goes with inefficient removal. In general, AUC refers to concentration integrated over time. Higher therefore signals high exposure. What is called bioavailability is dose-corrected exposure relative to a reference, in per cent. Lower therefore signals little systemic uptake.

Structures are written as SMILES. The source made the active and inactive calls. No cut-off for these calls is given here. Bounds are passed on as bounds.

Data set [1] deals with Receptor tyrosine-protein kinase erbB-2 (Homo sapiens, UniProt P04626). In words: Inhibition of Her-2 by time-resolved fluorescence assay.
Chain of Receptor tyrosine-protein kinase erbB-2 (P04626 whole entry): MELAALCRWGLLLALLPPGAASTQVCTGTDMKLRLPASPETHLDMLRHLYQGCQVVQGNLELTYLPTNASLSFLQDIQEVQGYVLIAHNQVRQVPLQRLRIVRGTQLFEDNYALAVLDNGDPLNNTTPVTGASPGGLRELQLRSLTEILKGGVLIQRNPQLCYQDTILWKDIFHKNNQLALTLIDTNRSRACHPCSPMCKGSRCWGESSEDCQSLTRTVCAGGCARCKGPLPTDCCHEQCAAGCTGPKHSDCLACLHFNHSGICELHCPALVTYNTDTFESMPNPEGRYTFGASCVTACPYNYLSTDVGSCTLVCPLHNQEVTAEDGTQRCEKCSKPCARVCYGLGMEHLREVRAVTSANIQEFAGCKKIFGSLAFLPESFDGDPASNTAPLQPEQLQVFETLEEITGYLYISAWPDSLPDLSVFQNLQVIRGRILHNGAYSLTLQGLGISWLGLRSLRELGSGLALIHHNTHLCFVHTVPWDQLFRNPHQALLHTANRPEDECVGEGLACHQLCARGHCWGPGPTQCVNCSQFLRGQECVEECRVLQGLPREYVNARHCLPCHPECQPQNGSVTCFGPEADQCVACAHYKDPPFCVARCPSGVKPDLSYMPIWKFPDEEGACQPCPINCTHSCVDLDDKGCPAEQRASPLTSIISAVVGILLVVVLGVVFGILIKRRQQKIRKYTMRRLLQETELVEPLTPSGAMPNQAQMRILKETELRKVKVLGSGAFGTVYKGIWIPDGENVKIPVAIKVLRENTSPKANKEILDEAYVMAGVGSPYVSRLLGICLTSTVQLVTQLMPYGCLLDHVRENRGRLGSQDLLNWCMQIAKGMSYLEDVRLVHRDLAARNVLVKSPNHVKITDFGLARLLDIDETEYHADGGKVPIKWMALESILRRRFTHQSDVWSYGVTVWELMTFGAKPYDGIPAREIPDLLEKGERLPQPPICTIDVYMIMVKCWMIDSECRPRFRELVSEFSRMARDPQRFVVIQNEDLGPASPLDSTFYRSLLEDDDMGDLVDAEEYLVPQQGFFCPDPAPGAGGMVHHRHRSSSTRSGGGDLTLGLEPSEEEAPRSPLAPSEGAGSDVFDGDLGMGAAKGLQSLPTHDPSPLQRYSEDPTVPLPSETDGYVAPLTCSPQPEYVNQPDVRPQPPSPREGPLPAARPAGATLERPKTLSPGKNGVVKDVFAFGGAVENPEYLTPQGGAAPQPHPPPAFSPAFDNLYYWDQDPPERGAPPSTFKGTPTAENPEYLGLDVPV
The target of data set [2] is Epidermal growth factor receptor (Homo sapiens, UniProt P00533). The experiment in a line: Inhibition of EGFR by time-resolved fluorescence assay.
Chain of Epidermal growth factor receptor (P00533 whole entry): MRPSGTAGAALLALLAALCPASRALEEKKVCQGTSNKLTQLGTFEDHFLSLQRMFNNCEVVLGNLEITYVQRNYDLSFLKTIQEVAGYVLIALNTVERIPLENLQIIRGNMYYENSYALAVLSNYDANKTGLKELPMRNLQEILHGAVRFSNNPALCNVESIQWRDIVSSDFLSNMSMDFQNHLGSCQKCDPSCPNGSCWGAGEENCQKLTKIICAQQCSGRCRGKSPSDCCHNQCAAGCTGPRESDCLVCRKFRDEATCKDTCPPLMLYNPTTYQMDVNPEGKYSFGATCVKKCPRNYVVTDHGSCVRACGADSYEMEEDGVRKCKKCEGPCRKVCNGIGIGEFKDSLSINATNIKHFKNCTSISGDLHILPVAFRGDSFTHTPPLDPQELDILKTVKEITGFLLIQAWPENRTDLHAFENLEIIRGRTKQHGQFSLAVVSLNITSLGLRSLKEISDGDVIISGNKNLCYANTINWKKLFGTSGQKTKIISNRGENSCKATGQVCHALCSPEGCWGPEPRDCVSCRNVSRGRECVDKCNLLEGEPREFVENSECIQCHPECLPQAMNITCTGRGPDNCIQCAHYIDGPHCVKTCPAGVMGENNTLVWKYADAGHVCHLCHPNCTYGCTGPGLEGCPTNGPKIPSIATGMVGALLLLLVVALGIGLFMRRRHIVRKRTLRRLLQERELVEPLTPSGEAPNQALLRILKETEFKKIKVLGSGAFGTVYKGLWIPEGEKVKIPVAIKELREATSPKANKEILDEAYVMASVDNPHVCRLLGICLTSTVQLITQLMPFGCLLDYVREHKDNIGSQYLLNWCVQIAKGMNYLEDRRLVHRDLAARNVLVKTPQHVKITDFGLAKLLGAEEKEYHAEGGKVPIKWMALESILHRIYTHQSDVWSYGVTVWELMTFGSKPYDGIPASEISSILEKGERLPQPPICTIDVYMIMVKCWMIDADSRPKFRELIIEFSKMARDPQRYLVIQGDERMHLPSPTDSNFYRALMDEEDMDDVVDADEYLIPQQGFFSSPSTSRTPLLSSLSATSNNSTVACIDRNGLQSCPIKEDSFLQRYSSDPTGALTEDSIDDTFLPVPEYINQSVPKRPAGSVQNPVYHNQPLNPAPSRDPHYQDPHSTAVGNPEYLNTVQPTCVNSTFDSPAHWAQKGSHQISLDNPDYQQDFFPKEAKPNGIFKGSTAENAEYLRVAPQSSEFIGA
For data set [3], the system named is NCI-N87. The experiment in a line: Antitumor activity against human NCI-N87 cells xenografted in athymic mouse assessed as tumor growth inhibition at 20 mg/kg, po QD for 14 days measured after 19 days. It is filed as functional, organism-based. Also on record: dose 20 mg/kg. (In general: Xenograft models place foreign cells or tissue in a host animal.)
Another data set relates to BT-474. The experiment in a line: Antiproliferative activity against human BT474 cells after 3 days by methylene blue staining. It is filed as functional, cell-based. As to conditions: BT-474, 72 h.
The subject of data set [4] is NCI-N87. The experiment in a line: Antiproliferative activity against human NCI-N87 cells after 3 days by methylene blue staining. It is filed as functional, cell-based. As to conditions: NCI-N87, 72 h.
For data set [5], the system named is NCI-N87. In words: Antitumor activity against human NCI-N87 cells xenografted in athymic mouse assessed as tumor volume at 20 mg/kg, po QD for 14 days measured after 19 days relative to control. The data set is classed as functional.
Data set [6] concerns NCI-N87. In words: Antitumor activity against human NCI-N87 cells xenografted in athymic mouse assessed as tumor volume at 80 mg/kg, po QD for 14 days measured after 19 days relative to control. It is filed as functional.
Data set [7] is described as follows: Aqueous solubility of the compound at pH 7.4. The data set is classed as physicochemical.
Data set [8] in a line: Total clearance in iv dosed rat. It is filed as ADME, organism-based. As to conditions: in vivo.
Data set [9] concerns the target Vascular endothelial growth factor receptor 2 (Homo sapiens, UniProt P35968). The experiment in a line: Inhibition of VEGFR2.
For another data set, the target named is T1, Aurora kinase A (Homo sapiens, UniProt O14965).
T1 sequence (O14965 whole entry): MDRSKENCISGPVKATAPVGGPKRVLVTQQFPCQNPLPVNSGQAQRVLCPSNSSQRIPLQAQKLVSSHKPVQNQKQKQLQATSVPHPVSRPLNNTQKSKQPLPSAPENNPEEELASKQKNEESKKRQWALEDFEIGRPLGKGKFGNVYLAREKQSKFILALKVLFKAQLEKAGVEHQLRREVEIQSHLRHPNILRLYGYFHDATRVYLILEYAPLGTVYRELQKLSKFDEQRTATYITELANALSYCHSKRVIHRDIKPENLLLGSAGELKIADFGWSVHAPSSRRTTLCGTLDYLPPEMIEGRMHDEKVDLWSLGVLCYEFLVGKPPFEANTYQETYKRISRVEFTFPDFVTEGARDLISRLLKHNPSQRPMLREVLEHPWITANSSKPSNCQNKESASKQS
In words: Inhibition of Aurora A.

Another data set deals with Insulin receptor (Homo sapiens, UniProt P06213). In words: Inhibition of INSR.
Chain of Insulin receptor (P06213 28-758 limits assumed): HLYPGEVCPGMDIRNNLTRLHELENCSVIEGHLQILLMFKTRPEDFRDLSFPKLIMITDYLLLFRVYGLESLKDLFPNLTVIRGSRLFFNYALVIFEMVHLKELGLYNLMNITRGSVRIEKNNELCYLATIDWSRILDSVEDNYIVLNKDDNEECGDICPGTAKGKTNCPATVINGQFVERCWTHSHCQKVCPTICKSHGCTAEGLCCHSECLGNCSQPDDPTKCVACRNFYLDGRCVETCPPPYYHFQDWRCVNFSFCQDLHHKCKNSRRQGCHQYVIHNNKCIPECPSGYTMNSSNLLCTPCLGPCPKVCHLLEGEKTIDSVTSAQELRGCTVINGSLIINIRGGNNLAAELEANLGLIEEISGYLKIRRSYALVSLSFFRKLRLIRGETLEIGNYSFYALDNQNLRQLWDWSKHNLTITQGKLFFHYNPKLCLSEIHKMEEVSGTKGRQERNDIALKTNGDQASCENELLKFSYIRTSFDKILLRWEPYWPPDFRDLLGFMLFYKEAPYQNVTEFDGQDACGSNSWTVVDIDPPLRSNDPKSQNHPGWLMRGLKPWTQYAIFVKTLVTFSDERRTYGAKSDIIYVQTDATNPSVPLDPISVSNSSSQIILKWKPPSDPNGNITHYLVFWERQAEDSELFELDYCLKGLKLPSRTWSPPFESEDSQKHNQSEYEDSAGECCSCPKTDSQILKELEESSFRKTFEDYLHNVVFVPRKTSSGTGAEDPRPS
Chain of Insulin receptor (P06213 763-1382 limits assumed): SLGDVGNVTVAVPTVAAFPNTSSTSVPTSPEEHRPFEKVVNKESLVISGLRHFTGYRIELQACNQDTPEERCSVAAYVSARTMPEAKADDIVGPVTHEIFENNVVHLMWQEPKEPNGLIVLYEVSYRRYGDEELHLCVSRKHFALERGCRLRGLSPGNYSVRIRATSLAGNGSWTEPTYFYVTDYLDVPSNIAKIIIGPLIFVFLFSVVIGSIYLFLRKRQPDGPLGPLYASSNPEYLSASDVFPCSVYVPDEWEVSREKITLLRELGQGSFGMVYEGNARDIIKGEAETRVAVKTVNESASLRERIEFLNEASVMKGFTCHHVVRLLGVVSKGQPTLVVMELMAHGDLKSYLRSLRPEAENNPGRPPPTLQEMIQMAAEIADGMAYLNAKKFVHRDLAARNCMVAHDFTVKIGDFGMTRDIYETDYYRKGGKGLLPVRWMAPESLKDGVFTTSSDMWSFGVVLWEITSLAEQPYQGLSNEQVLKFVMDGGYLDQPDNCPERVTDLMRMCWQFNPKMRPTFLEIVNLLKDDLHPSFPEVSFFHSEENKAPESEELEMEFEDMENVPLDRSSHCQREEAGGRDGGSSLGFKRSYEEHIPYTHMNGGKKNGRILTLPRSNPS
Data set [10] has as its system NCI-N87. In words: Antitumor activity against human NCI-N87 cells xenografted in athymic mouse assessed as tumor growth inhibition at 80 mg/kg, po QD for 14 days measured after 19 days. It is filed as functional, organism-based. Also on record: dose 80 mg/kg.
In data set [11] the target is Platelet-derived growth factor receptor beta (Homo sapiens, UniProt P09619). The experiment in a line: Inhibition of PDGFRbeta.
Data set [12] is described as follows: AUC in po dosed rat. The data set is classed as ADME, organism-based. Conditions: plasma.
Data set [13] can be described thus: Oral bioavailability in rat. The data set is classed as ADME, organism-based. As to conditions: in vivo.
Data set [14] can be described thus: Metabolic stability of the compound in human liver microsomes assessed as compound remaining after 30 mins. As to conditions: read-out: Stability. It is filed as ADME, Microsome. (In general: Microsomes from liver hold many membrane-bound enzymes, among them those of drug oxidation.)
Data set [15] is described as follows: Metabolic stability of the compound in rat liver microsomes assessed as compound remaining after 30 mins. As to conditions: read-out: Stability. The data set is classed as ADME, Microsome.
Data set [16] deals with Tyrosine-protein kinase Lck (Homo sapiens, UniProt P06239). In words: Inhibition of Lck.
Chain of Tyrosine-protein kinase Lck (P06239 whole entry): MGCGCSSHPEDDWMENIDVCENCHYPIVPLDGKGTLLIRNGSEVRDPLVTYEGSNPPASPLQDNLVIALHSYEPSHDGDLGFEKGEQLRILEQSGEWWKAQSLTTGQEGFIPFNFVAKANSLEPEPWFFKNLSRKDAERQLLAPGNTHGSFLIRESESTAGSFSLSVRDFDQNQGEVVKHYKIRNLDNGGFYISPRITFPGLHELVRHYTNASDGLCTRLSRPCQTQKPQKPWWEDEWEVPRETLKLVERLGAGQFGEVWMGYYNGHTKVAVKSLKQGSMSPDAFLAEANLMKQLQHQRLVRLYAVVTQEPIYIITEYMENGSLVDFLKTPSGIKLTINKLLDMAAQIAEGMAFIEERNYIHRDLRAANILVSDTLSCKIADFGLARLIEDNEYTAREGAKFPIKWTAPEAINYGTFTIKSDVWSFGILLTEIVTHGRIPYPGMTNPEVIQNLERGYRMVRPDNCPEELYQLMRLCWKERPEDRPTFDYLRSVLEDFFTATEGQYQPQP

For the compound `Cc1ncnc(Nc2ccc(OCc3cccc(F)c3)c(Cl)c2)c1C#Cc1ccc(CN2CCCC2)cc1`, the IC50 in data set [1] was 0.041 µM; in data set [2], 0.009 µM.

Take `CS(=O)(=O)CCNCc1ccc(-c2ccc3ncnc(Nc4ccc(OCc5cccc(F)c5)c(Cl)c4)c3c2)o1`: the “growth inhibition (GI)” value in the data set on NCI-N87 [3] was “Active”.

For `Cc1ncnc(Nc2ccc(OCc3cccc(F)c3)c(Cl)c2)c1C#Cc1ccc(CN(C)C)cc1`, the IC50 in data set [1] was 0.041 µM; in data set [2], 0.007 µM.

Regarding `CS(=O)(=O)CCNCc1ccc(-c2ccc3ncnc(Nc4ccc(OCc5cccc(F)c5)c(Cl)c4)c3c2)o1` [LAPATINIB], the IC50 turned out to be 0.1 µM with BT-474 and 0.09 µM with NCI-N87 [4].

As for `Cc1ncnc(Nc2ccc(OCc3cccc(F)c3)c(Cl)c2)c1C#Cc1ccc(CN2CCCC2)o1`, the IC50 was determined as 0.81 µM in the data set with BT-474, 1.36 µM in the data set on NCI-N87 [4], 0.14 µM in [1] and 0.079 µM in data set [2].

On to `Cc1ncnc(Nc2ccc(OCc3cccc(F)c3)c(Cl)c2)c1C#CCOc1ccc(CNC(C)C)cc1`, for which the IC50 amounted to 0.13 µM in [1] and 0.086 µM in data set [2].

In the case of `Cc1ncnc(Nc2ccc(OCc3cccc(F)c3)c(Cl)c2)c1C#Cc1cccc(CN(C)C)c1`, the IC50 in data set [1] worked out at 0.073 µM; in data set [2], 0.055 µM.

In the case of `Cc1ncnc(Nc2ccc(OCc3cccc(F)c3)c(Cl)c2)c1C#Cc1ccccc1`, the figures for the IC50 in data set [1] and in data set [2] were 0.75 µM and 0.65 µM, respectively.

For `Cc1ncnc(Nc2ccc(OCc3cccc(F)c3)c(Cl)c2)c1/C=C/c1ccc(CNC(C)C)cc1`, the IC50 in data set [1] turned out to be 0.03 µM; in data set [2], 0.024 µM.

As to `CS(=O)(=O)CCNCc1ccc(-c2ccc3ncnc(Nc4ccc(OCc5cccc(F)c5)c(Cl)c4)c3c2)o1.Cc1ccc(S(=O)(=O)O)cc1.Cc1ccc(S(=O)(=O)O)cc1.O` [LAPATINIB DITOSYLATE], the figures for the T/C in the data set on NCI-N87 [5] and in the data set on NCI-N87 [6] were 0.57 and 0.37, respectively.

Take `Cc1ncnc(Nc2ccc(OCc3cccc(F)c3)c(Cl)c2)c1/C=C/c1ccc(CNCCS(C)(=O)=O)cc1`: the IC50 in the data set on BT-474 is 0.64 µM; in the data set with NCI-N87 [4], 0.78 µM; in data set [1], 0.12 µM.

On to `Cc1ncnc(Nc2ccc(OCc3cccc(F)c3)c(Cl)c2)c1C#Cc1ccc(CN2CCCC2)c(F)c1`, for which the solubility in data set [7] is greater than 50 µM. Besides, the clearance in [8] is 1.08 L/h/kg. Also, the IC50 is 0.05 µM in the data set on BT-474; 0.06 µM in the data set on NCI-N87 [4]; greater than 100 µM in data set [9]; greater than 100 µM at Aurora kinase A; greater than 100 µM against Insulin receptor; greater than 100 µM in [11]. In addition, the IC50 in [1] is 0.062 µM; in data set [2], 0.19 µM; in data set [16], greater than 100 µM. Besides, the “growth inhibition (GI)” value in the data set with NCI-N87 [3] and in the data set on NCI-N87 [10] was “Active” throughout. Moreover, the T/C in the data set with NCI-N87 [5] is recorded as 0.56; in the data set with NCI-N87 [6] it was 0.54. Moreover, in data set [12], the AUC came to 0.361 µg·h/mL. This compound gave a bioavailability in [13] of 35%. For the same compound, the remaining at 0.5 h in data set [14] worked out at 24%; in [15] it was 63%.

Take `Cc1ncnc(Nc2ccc(OCc3cccc(F)c3)c(Cl)c2)c1C#Cc1ccc(CNCCS(C)(=O)=O)cc1`: the IC50 in [1] worked out at 0.22 µM; in data set [2] it was 0.022 µM.

With `Cc1ncnc(Nc2ccc(OCc3cccc(F)c3)c(Cl)c2)c1C#Cc1ncc(CN2CCCC2)s1`, the IC50 in [1] turned out to be 0.11 µM; in [2], 0.074 µM.

As to `Cc1ncnc(Nc2ccc(OCc3cccc(F)c3)c(Cl)c2)c1C#Cc1ccc(CNC(C)C)cc1`, the IC50 is 0.17 µM in the data set on BT-474, 0.24 µM in the data set on NCI-N87 [4], 0.018 µM in data set [1] and 0.003 µM in [2].

In the case of `Cc1ncnc(Nc2ccc(OCc3cccc(F)c3)c(Cl)c2)c1/C=C/c1ccc(CNC2CC2)cc1`, the results for the IC50 in data set [1] and in data set [2] were 0.086 µM and 0.098 µM, respectively.

For `Cc1ncnc(Nc2ccc(OCc3cccc(F)c3)c(Cl)c2)c1C#Cc1ccc(CN2CCCC2)s1`, the IC50 with BT-474 was 0.41 µM; in the data set with NCI-N87 [4], 0.69 µM; in [1] it was 0.18 µM; in data set [2], 0.03 µM.
